Molecular target: protein tyrosine kinase v-Abl (Abelson murine leukemia virus, UniProt P00521)
Conditions: Library Sub-Set 4 (X-Tyr-X-X-X)
Excerpt: In the fourth application of this invention, a recombinant form of the Abelson murine leukaemia virus protein tyrosine kinase v-Abl was used in an in vitro phosphorylation reaction to phosphorylate the library sub-set 4 which scans the sequence −1 to +3 around a zero position tyrosine residue, as previously performed for the ZAP-70 library. Detection of phosphoryrosine was achieved using anti-phosphotyrosine antibody detection in an ELISA assay using tetramethylbenzidine substrate and recording absorbance at 450 nm. […] Deconvolution of the hit peptides was performed as described in WO 97/42216.
Library peptides were phosphorylated in pools of 20 peptides at a final concentration of 1 μM total peptide in 50 mM HEPES, pH 7.5, 0.1% Triton X-100, 100 μM ATP, 10 mM MnCl2, 1 mM DTT and 0.2 mM sodium orthovanadate for 30 minutes at 30° C. These reaction mixtures were then stopped using 100 mM EDTA, 6 mM adenosine, transferred to strepavidin-coated microtiter plates and allowed to bind for 30 minutes at 20° C. Unincorporated reaction products were washed from the plate using PBS/0.1% Tween 20 then plate incubation performed with anti-phosphotyrosine antibody (Sigma mouse monoclonal clone PT66) in 2% BSA/PBS/Tween for 1 hour at 20° C. […] HRP detection was then performed with tetramethylbenzidine (TMB) substrate and measuring absorbance at 450 nm using a spectrophotometer (Dynex MRX). […]

protein tyrosine kinase v-Abl, sequence (P00521 whole entry): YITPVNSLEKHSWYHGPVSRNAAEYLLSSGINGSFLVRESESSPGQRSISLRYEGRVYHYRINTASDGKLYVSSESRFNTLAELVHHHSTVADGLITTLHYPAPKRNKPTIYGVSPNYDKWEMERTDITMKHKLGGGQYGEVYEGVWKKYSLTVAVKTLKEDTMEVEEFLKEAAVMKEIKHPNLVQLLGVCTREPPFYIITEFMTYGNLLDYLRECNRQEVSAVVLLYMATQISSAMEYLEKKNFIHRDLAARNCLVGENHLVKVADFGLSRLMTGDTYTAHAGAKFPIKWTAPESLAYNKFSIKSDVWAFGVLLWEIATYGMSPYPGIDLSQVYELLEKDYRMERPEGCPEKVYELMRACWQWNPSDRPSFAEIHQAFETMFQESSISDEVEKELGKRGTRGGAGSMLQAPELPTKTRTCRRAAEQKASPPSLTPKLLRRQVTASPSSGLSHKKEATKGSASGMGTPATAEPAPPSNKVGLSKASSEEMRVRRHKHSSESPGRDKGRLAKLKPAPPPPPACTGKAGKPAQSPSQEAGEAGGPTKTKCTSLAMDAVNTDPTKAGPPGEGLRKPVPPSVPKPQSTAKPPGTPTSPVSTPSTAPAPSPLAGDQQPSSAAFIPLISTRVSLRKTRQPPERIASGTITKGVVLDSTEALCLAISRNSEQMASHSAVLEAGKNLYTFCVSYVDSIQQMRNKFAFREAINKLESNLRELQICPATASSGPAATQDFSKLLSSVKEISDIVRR

“Serine-tyrosine-phenylalanine-histamine-glutamine” was tested, and the “substrate deconvoluted from library sub-set” value was “active site substrate recognition substrate”.

— patent US20020155503A1 (priority 1997, published 2002)
